Test results published in patent US4575560A, “Insecticidal diaminoguanidine hydrazone compounds” (American Cyanamid Company, priority 1985, dated 1986).
Values after ≈ are worked out from the molar mass of the structure shown.

Experiments:
[1] = test system: Southern Armyworm; test: Southern armyworm test, third-instar larvae on treated Sieva lima bean leaves; format: in vivo, Spodoptera eridania (Cramer); conditions: for Mortality Rating Southern Armyworm: third-instar larvae
Description: Test formulations and procedures used for evaluation are as follows:
A. 100 mg of the test material is weighed, placed in a funnel over a 113 g narrow-mouth bottle, rinsed into the bottle with a 35 mL scoop of acetone, followed by a 35 mL scoop of water and another 35 mL scoop of acetone to yield 1000 ppm in 65% acetone. If the material is not soluble, it is broken up with a glass rod and used as a suspension.
B. This stock solution ("A") is used to make 300 ppm solutions or suspensions by pipetting 30 mL of "A" into a bottle containing 70 mL of 50% acetone to yield 300 ppm. Further dilutions in 50% acetone are made as required.
C. Tests requiring 10 ppm acetone solutions: 1 mL of "A" is pipetted into 99 mL of acetone to yield 10 ppm. Additional dilutions are made using 50% acetone as required.
Southern Armyworm--Spodoptera eridania (Cramer)
A Sieva lima bean plant with just the primary leaves expanded to 1.91 cm is dipped for three seconds with agitation in the "A" solution of 1000 ppm and set in the hood to dry. Following this, one leaf is placed in a 9 cm petri dish which has a moist filter paper in the bottom and 10 third-instar armyworm larvae about 1 cm long. This dish is covered and held at 80° F., and 50% r.h. After two days, mortality counts and estimates of the amount of feeding are made. Compounds showing partial kill and/or inhibition of feeding are held for an extra day for further observations.
All compounds showing activity as defined above are retested, using the second leaf on the bean plant, after an interval of seven days from original treatment, as an assay of residual activity.

[2] = test system: Tobacco Budworm 3rd Instar; test: Tobacco budworm secondary test, third-instar larvae on treated cotton cotyledons; format: in vivo, Heliothis virescens (Fabricus)

Row | Compound | Mortality Rating Southern Armyworm ([1]; 100 ppm) | Mortality Rating Southern Armyworm ([1]; 1000 ppm) | Mortality Rating Tobacco Budworm 3rd Instar ([2]; 1000 ppm) | reduced feeding (R) Tobacco Budworm 3rd Instar ([2]; 1000 ppm) | Mortality Rating Southern Armyworm ([1]; 10 ppm) | Mortality Rating Tobacco Budworm 3rd Instar ([2]; 100 ppm) | Mortality Rating Tobacco Budworm 3rd Instar ([2]; 10 ppm) | LC50 ([1]; Spodoptera eridania, read-out: LC50 Southern Armyworm) | reduced feeding (R) Tobacco Budworm 3rd Instar ([2]; 100 ppm)
1 | N=C(NN=Cc1ccc(OC(F)(F)C(F)Cl)cc1)N(N=Cc1ccc(OC(F)(F)C(F)Cl)cc1)C(=O)OCCCl (stereo not shown) [drawing 57 / drawing 58 / ClCH2 CH2] | 9 (100%) | 9 (100%) | 0 (No effect) | R |  |  |  |  | 
2 | N=C(NN=Cc1ccc(OC(F)(F)C(Cl)Cl)cc1)NN=Cc1ccc(OC(F)(F)C(Cl)Cl)cc1 [HCCl2 CF2 O / B] | 0 (No effect) | 9 (100%) | 4 (46-55%) | R | 0 (No effect) |  |  |  | 
3 | CCOC(=O)N(N=Cc1ccc(OC(F)(F)F)cc1)C(=N)NN=Cc1ccc(OC(F)(F)F)cc1 [CF3 O / CF3 O / C2 H5] | 9 (100%) | 9 (100%) | 7 (76-85%) | R | 6 (66-75%) | 2 (26-35%) |  |  | 
4 | N=C(NN=Cc1ccc(SC(F)(F)C(F)F)cc1)NN=Cc1ccc(SC(F)(F)C(F)F)cc1 [HCF2 CF2 S / B] | 9 (100%) | 9 (100%) | 0 (No effect) | R |  |  |  |  | 
5 | N=C(NN=Cc1ccc(OCC(F)(F)F)cc1)NN=Cc1ccc(OCC(F)(F)F)cc1 [CF3 CH2 O / B] | 0 (No effect) | 4 (46-55%) | 0 (No effect) | R |  | 0 (No effect) |  |  | 
6 | CCOC(=O)N(N=Cc1ccc(OC(F)F)cc1)C(=N)NN=Cc1ccc(OC(F)F)cc1 [HCF2 O / HCF2 O / C2 H5] | 9 (100%) | 9 (100%) | 2 (26-35%) |  | 0 (No effect) |  |  |  | 
7 | N=C(NN=Cc1ccc(OC(F)(F)C(F)Cl)cc1)NN=Cc1ccc(OC(F)(F)C(F)Cl)cc1 (stereo not shown) [drawing 43 / B] | 9 (100%) | 9 (100%) | 9 (100%) |  |  | 0 (No effect) | 0 (No effect) |  | 
8 | CCNC(=O)N(N=Cc1ccc(OC(F)(F)C(F)F)cc1)C(=N)NN=Cc1ccc(OC(F)(F)C(F)F)cc1 [HCF2 CF2 O / HCF2 CF2 O / C2 H5 / H] | 9 (100%) | 9 (100%) | 4 (46-55%) |  | 0 (No effect) |  |  | 34 µg/mL (≈ 59.8 µM) | 
9 | CCC(C)OC(=O)N(N=Cc1ccc(Cl)cc1)C(=N)NN=Cc1ccc(Cl)cc1 (stereo not shown) [Cl / Cl / drawing 56] | 0 (No effect) | 9 (100%) | 0 (No effect) | R |  | 0 (No effect) |  |  | 
10 | CC(C)OC(=O)N(N=Cc1ccc2c(c1)OC(F)C(F)(F)O2)C(=N)NN=Cc1ccc2c(c1)OC(F)C(F)(F)O2 (stereo not shown) [drawing 52 / drawing 53 / -i-C3 H7] | 5 (56-65%) | 8 (86-99%) | 0 (No effect) | R | 0 (No effect) | 0 (No effect) |  |  | 
11 | CN(C)C(=O)N(N=Cc1ccc(SC(F)F)cc1)C(=N)NN=Cc1ccc(SC(F)F)cc1 [HCF2 S / HCF2 S / CH3 / CH3] | 9 (100%) | 9 (100%) | 0 (No effect) |  | 0 (No effect) |  |  |  | 
12 | N=C(NN=Cc1ccc(Cl)cc1)NN=Cc1ccc(C(F)(F)F)cc1 [CF3 / Cl / B] | 9 (100%) | 9 (100%) | 4 (46-55%) | R |  | 0 (No effect) | 0 (No effect) |  | R
13 | N=C(NN=Cc1ccc(C(F)(F)F)cc1)N(N=Cc1ccc(C(F)(F)F)cc1)C(=O)OCCBr [CF3 / CF3 / BrCH2 CH2] | 0 (No effect) | 9 (100%) | 0 (No effect) |  | 0 (No effect) |  |  |  | 
